For one experiment, the system named is T-Jurkat cells. Briefly: XTT cytotoxicity test on T-Jurkat cell line. The settings on record: for IC50: Homo sapiens, T-Jurkat, 48 h, viability, mean ± SD, read-out: Relative IC50 T-Jurkat (XTT); for IS internal selectivity (IC50 PBMCs / IC50 T-Jurkat): ratio between XTT IC50 values for PBMCs and T-Jurkat cell line. In kind it is cell-based, human. The method, then:
Table 3 presents the IC50 values obtained from the XTT test on PBMCs and the T-Jurkat cell line, using MPA and MMF as standards. These values indicate the concentration of each compound required to reduce the viability of PBMCs (healthy cells) and T-Jurkat cells (T-cell leukemia) by 50% compared to the control. Cells were treated with compounds for 72 h (PBMCs) or 48 h (T-Jurkat), followed by a colorimetric XTT test. The results are illustrated in ESI Fig. S2 as a viability curve in relation to concentration.
Biological evaluation — PBMC and T-Jurkat cells
The T-Jurkat cell line (Clone E6-1, ATCC TIB-152), derived from a human acute T-cell leukemia, was obtained from the cell bank of the Department of Medical Immunology at the Medical University of Gdańsk. Before experimentation, the cells were thawed and cultured for about 7 days to reach the logarithmic phase of growth. The T-Jurkat cell line was suspended in a complete RPMI medium, which included RPMI-1640, 10% FBS, penicillin (100 U/ml), and streptomycin ([…]).
Human peripheral blood mononuclear cells (PBMCs) were isolated from buffy coats provided by anonymous, healthy volunteers with an average age of 35±4 years during routine transfusion procedure. These samples were received by the Authors from the Regional Centre for Blood Donation and Treatment in Gdańsk (Poland). […]
solely for PBMCs isolation. PBMCs were suspended in a complete X-VIVO medium, consisting of X-VIVO20, 10% heat-inactivated human AB serum, penicillin (100 U/ml), and streptomycin ([…]).
MPA derivatives preparation
To achieve the desired concentrations of the tested compounds, the substances were first dissolved in DMSO to reach a final concentration of 0.01 M. The solutions were then diluted in the appropriate additive-free medium (RPMI-1640 for T-Jurkat cells and X-VIVO20 for PBMCs) to obtain […]
Peripheral blood mononuclear cells were isolated by gradient centrifugation, as described previously. Buffy coats were diluted with phosphate-buffered saline (PBS, pH = 7.4, ThermoFisher Scientific) in a 1:1 ratio, layered at Ficoll-Paque™ PLUS (VWR International), and centrifuged at 800 × g for 20 minutes. The PBMC layer was collected and washed twice with PBS (1st wash: 600 × g for 10 minutes; 2nd wash: 600 × g for 5 minutes). Cell amount and viability were assessed using the Bio-Rad TC20™ automated cell counter combined with trypan blue staining.
XTT dye-based in vitro cytotoxicity test
The cytotoxic effects of mycophenolic acid (MPA) derivatives were assessed using an in vitro XTT-based assay (Roche). PBMCs in complete X-VIVO20 medium and T-Jurkat cells in complete RPMI-1640 medium were seeded into 96-well plates at a concentration of 5∙10^5 cells/50 µl per well. 50 µl of tested compounds were added to the experimental wells to achieve final concentrations of 50, 25, 10, 5, 1, 0.1, and 0.01 µM. The background control consisted of the medium without cells, while untreated cells served as the positive control. After incubating for 48 hours for T-Jurkat cells and 96 hours for PBMCs in a humidified atmosphere with 5% CO2 at 37°C, 50 µl of freshly prepared XTT reagent was added to all wells according to the manufacturer's instructions. The plates were then incubated for an additional 24 hours under the same conditions. The conversion of the water-soluble yellow XTT tetrazolium salt to orange formazan was quantified by measuring the optical density (OD) at 450 nm using an Agilent BioTek Epoch Microplate Spectrophotometer (Agilent Technologies), with a reference wavelength of 690 nm. The results were expressed as IC50 values for compounds that […]
inhibited cell viability by more than 50%. […]
PBMCs were suspended in a 15 mL centrifuge tube at a concentration of 10-30 × 10⁶ cells in 1 mL of PBS, then, 2 μL of 1 mM VPD 450 dye solution was added, incubated for 15 min at 37°C, washed with a 9-fold volume of warm PBS and centrifuged at 400 x g for 5 min. Then, the cells were suspended […]
(Tetrazolium dyes change colour on reduction, which living cells bring about.)

The test system of the next experiment is PBMCs. Briefly: VPD450 proliferation test (flow cytometry) on PBMCs. In kind it is cell-based, human. The settings on record: for EC50: Homo sapiens, PBMC, PBMCs stimulated with anti-CD3/anti-CD28 beads, 72 h, mean ± SD; for SI selectivity index PBMCs (IC50/EC50): ratio between IC50 (XTT) and EC50 (VPD450) on PBMCs. The procedure:
These values indicate the concentration of any compound at which proliferation of PBMCs (healthy cells), and T-Jurkat cells (T-cell leukemia), is inhibited by 50% compared to the control. Cells were treated with the compounds for 72 h (PBMCs) or 48 h (T-Jurkat), followed by a […] VPD450 test. The results are presented in ESI Fig. S3 as proliferation curves concerning concentration.
ESI Figure 3. Concentration-dependent change in proliferation under the treatment of ester derivatives of MPA. (A) VPD450-labelled PBMCs were cultured in the presence of different concentrations (100; 50; 25; 10; 1; 0.1, and 0.01 μM) of MPA, MMF, and ester derivatives, and stimulated with magnetic beads coated with anti-CD3 and anti-CD28 antibodies for 72 hours. (B) VPD450-labelled T-Jurkat cells were cultured in the presence of different concentrations (100; 10; 1; 0.1 and 0.01 μM) of MPA and ester derivatives for 48 hours. The plots were separated based on the type of ester derivative (P or MP). Cell proliferation was analyzed using flow cytometry. The results are expressed […]
(1 picture or pasted object on this page, not shown here) […]
inhibited cell viability by more than 50%. Each experiment was conducted in triplicate, and the final […]
VPD450 dye-based in vitro cell proliferation test
PBMCs and T-Jurkat cells were washed twice with warm PBS (37°C), re-suspended in fresh PBS at a final concentration of 10-30∙10^6 cells/ml, and labelled with 1 µl of VPD450 (BD Biosciences) at 37°C for 15 minutes, with vortexing every 5 minutes to ensure uniform staining. Subsequently, cells were washed with PBS, then with the complete medium (X-VIVO20 for PBMCs and RPMI-1640 for T-Jurkat cells), next re-suspended in fresh complete medium and seeded into 96-well plates at a concentration of 1∙10^6 cells per well. PBMCs were additionally stimulated with magnetic beads coated with anti-CD3 and anti-CD28 antibodies (Invitrogen) at a 2:1 cell-to-bead ratio. To the experimental wells, 100 µl of the MPA derivatives were added to achieve final concentrations of 50, 25, 10, 5, 1, 0.1, and 0.01 µM. In parallel, control wells containing stained but unstimulated cells and stained, stimulated cells were prepared at the same concentration. Cell proliferation was analyzed using an LSRFortessa flow cytometer (BD Biosciences) and Kaluza C Flow Cytometry Analysis Software (Beckman Coulter). […]
Statistical analysis was conducted using GraphPad Prism 9 (GraphPad Software Inc).
Differences between MMF, MPA and its new derivatives were assessed using a two-tailed unpaired Student’s t-test, with statistical significance defined as p < 0.05. EC50 and IC50 values were determined by fitting data to a four-parameter non-linear regression model in GraphPad Prism 9. Statistical significance was evaluated using the t-test.
In general terms: A flow cytometer gives signals particle by particle.

For orientation: IC50 means the concentration needed to halve the response being measured. In general, EC50 refers to the midpoint of the concentration-response curve. High values mean a need for much substance, low ones an effect from little substance.

Take `COc1ccccc1OC(=O)CC/C(C)=C/Cc1c(O)c2c(c(C)c1OC)COC2=O` [MP1]: in the experiment on T-Jurkat cells, the IC50 was 0.982 ± 0.005 µM and the “IS internal selectivity (IC50 PBMCs / IC50 T-Jurkat)” value is reported as 15.051. Also, in the experiment with PBMCs, the 50% effective concentration (EC50) is 1.106 ± 0.004 µM and the “SI selectivity index PBMCs (IC50/EC50)” value amounted to 13.365.

Turning to `COc1c(C)c2c(c(O)c1C/C=C(\C)CCC(=O)Oc1ccc(CCC(C)=O)cc1)C(=O)OC2` [P7], in the experiment with T-Jurkat cells, the IC50 stood at 2.41 ± 0.002 µM and the “IS internal selectivity (IC50 PBMCs / IC50 T-Jurkat)” value was found to be 20.869. Besides, in the experiment with PBMCs, a half-maximal response (EC50) required 1.047 ± 0.006 µM and the “SI selectivity index PBMCs (IC50/EC50)” value is 48.036.

`COc1c(C)c2c(c(O)c1C/C=C(\C)CCC(=O)OCCN1CCOCC1)C(=O)OC2` [MMF, mycophenolate mofetil, reference compound]: in the experiment with T-Jurkat cells, the IC50 was determined as 0.74 ± 0.034 µM and the “IS internal selectivity (IC50 PBMCs / IC50 T-Jurkat)” value is 22.456. In the experiment on PBMCs, the EC50 stood at 1.037 ± 0.006 µM and the “SI selectivity index PBMCs (IC50/EC50)” value was determined as 16.020.

`COc1c(C)c2c(c(O)c1C/C=C(\C)CCC(=O)Oc1cc(C)ccc1C(C)C)C(=O)OC2` [P2]: in the experiment with T-Jurkat cells, the IC50 came out at 2.473 ± 0.004 µM and the “IS internal selectivity (IC50 PBMCs / IC50 T-Jurkat)” value turned out to be 6.611. Further, in the experiment on PBMCs, a half-maximal effect (EC50) was put at 1.417 ± 0.003 µM and the “SI selectivity index PBMCs (IC50/EC50)” value is listed as 11.538.

Consider `COc1cccc(OC)c1OC(=O)CC/C(C)=C/Cc1c(O)c2c(c(C)c1OC)COC2=O` [MP2], for which, in the experiment with T-Jurkat cells, the IC50 is 1.748 ± 0.006 µM and the “IS internal selectivity (IC50 PBMCs / IC50 T-Jurkat)” value is given as 12.883. In the experiment with PBMCs, the midpoint of the response, the EC50, lay at 5.395 ± 0.006 µM and the “SI selectivity index PBMCs (IC50/EC50)” value was found to be 4.174.

With `COc1c(C)c2c(c(O)c1C/C=C(\C)CCC(=O)Oc1ccc(C=O)cc1)C(=O)OC2` [P5], in the experiment on T-Jurkat cells, the IC50 worked out at 1.582 ± 0.003 µM and the “IS internal selectivity (IC50 PBMCs / IC50 T-Jurkat)” value came out at 6.288. In addition, in the experiment on PBMCs, the EC50 came to 1.656 ± 0.003 µM and the “SI selectivity index PBMCs (IC50/EC50)” value was 6.007.

On to `COc1cc(C=O)cc(OC)c1OC(=O)CC/C(C)=C/Cc1c(O)c2c(c(C)c1OC)COC2=O` [MP3], for which, in the experiment with T-Jurkat cells, the IC50 was 4.443 ± 0.007 µM and the “IS internal selectivity (IC50 PBMCs / IC50 T-Jurkat)” value stood at 2.383. Moreover, in the experiment on PBMCs, the EC50 is 13.742 ± 0.005 µM and the “SI selectivity index PBMCs (IC50/EC50)” value came out at 0.770.

As for `COc1c(C)c2c(c(O)c1C/C=C(\C)CCC(=O)O)C(=O)OC2` [MPA, Mycophenolic acid], in the experiment on T-Jurkat cells, the half-inhibitory concentration (IC50) was 0.527 ± 0.04 µM and the “IS internal selectivity (IC50 PBMCs / IC50 T-Jurkat)” value came to 35.558. Also, in the experiment on PBMCs, the response was half-maximal at 1.154 ± 0.006 µM (EC50) and the “SI selectivity index PBMCs (IC50/EC50)” value came out at 16.232.

In the case of `COc1c(C)c2c(c(O)c1C/C=C(\C)CCC(=O)Oc1ccc3c(c1)OCO3)C(=O)OC2` [P1], in the experiment on T-Jurkat cells, the IC50 turned out to be 1.073 ± 0.002 µM and the “IS internal selectivity (IC50 PBMCs / IC50 T-Jurkat)” value is recorded as 116.938. In addition, in the experiment with PBMCs, a half-maximal effect (EC50) was put at 1.152 ± 0.004 µM and the “SI selectivity index PBMCs (IC50/EC50)” value turned out to be 108.919.

`COC(=O)/C=C/c1ccc(OC(=O)CC/C(C)=C/Cc2c(O)c3c(c(C)c2OC)COC3=O)c(OC)c1` [MP7]: in the experiment with T-Jurkat cells, the IC50 amounted to 1.406 ± 0.004 µM and the “IS internal selectivity (IC50 PBMCs / IC50 T-Jurkat)” value was determined as 21.645. In addition, in the experiment with PBMCs, the EC50 was determined as 7.734 ± 0.007 µM and the “SI selectivity index PBMCs (IC50/EC50)” value came out at 3.935.

For the compound `C/C=C/c1ccc(OC(=O)CC/C(C)=C/Cc2c(O)c3c(c(C)c2OC)COC3=O)c(OC)c1` [MP9], in the experiment with T-Jurkat cells, the IC50 was found to be 1.964 ± 0.002 µM and the “IS internal selectivity (IC50 PBMCs / IC50 T-Jurkat)” value is on record as 10.770. Moreover, in the experiment on PBMCs, the response was half-maximal at 2.356 ± 0.003 µM (EC50) and the “SI selectivity index PBMCs (IC50/EC50)” value is reported as 8.978.

As to `COc1cc(C=O)ccc1OC(=O)CC/C(C)=C/Cc1c(O)c2c(c(C)c1OC)COC2=O` [MP4], in the experiment on T-Jurkat cells, the IC50 worked out at 5.33 ± 0.005 µM and the “IS internal selectivity (IC50 PBMCs / IC50 T-Jurkat)” value stood at 4.406. In the experiment with PBMCs, the EC50 came out at 2.9 ± 0.005 µM and the “SI selectivity index PBMCs (IC50/EC50)” value came out at 8.098.

`C=CCc1ccc(OC(=O)CC/C(C)=C/Cc2c(O)c3c(c(C)c2OC)COC3=O)c(OC)c1` [MP8]: in the experiment with T-Jurkat cells, the IC50 was 1.705 ± 0.002 µM and the “IS internal selectivity (IC50 PBMCs / IC50 T-Jurkat)” value is 10.429. Also, in the experiment on PBMCs, the concentration giving a half-maximal response (EC50) came to 1.154 ± 0.003 µM and the “SI selectivity index PBMCs (IC50/EC50)” value is listed as 15.409.

As to `COC(=O)/C=C/c1ccccc1OC(=O)CC/C(C)=C/Cc1c(O)c2c(c(C)c1OC)COC2=O` [P4], in the experiment on T-Jurkat cells, the IC50 was 1.658 ± 0.003 µM and the “IS internal selectivity (IC50 PBMCs / IC50 T-Jurkat)” value worked out at 15.613. For the same compound, in the experiment with PBMCs, the EC50 worked out at 4.865 ± 0.004 µM and the “SI selectivity index PBMCs (IC50/EC50)” value is listed as 5.321.

Source of the values: PMC12271471, “Direct synthesis of mycophenolic acid aryl esters with antioxidant and antiproliferative properties” (Scientific Reports, 2025).
